This note sets out measurements from patent publication US20060234922A1, “Remedy for corneal failure” (priority 2002, published 2006).

What all share (type): cell-based
Assay [1] has as its system cultured rabbit trigeminal nerve cells. Description: Effect of Octreotide on axon extension of cultured rabbit trigeminal nerve cells (anti-neurofilament 200 immunostaining, image analysis). Particulars: Octreotide 10 μM final concentration, 24 hr culture. The source says: Effect of Octreotide on Axon Extension of Cultured Rabbit Trigeminal Nerve Cells (In Vitro Test)
(§1) Japanese White Rabbits (2-3 days old) purchased from Fukusaki Rabbit Warren were used.
Octreotide (SMS 201-995, American Peptide Company, Inc.) was used.
The cell culture: Trigeminal nerve cells were isolated by reference to the report of Chan et al. (Kuan Y. Chan and Richard H. Haschke. Exp. Eye Res. 41: 687-699, 1985). To be specific, under ether anesthesia, after cardiac perfusion of rabbit with saline, the trigeminal ganglia was removed, and dispersed in nerve dispersion solution (SUMITOMO BAKELITE Co., Ltd.). The cells were counted and innoculated in an 8 well culture slide (BECTON DICKINSON) coated with polylysine. The cell number was about 3×10^3 cells per well, and the culture conditions were 5% CO2, 95% air, 37° C. […] Immunostaining: At 24 hr from culture, the cells were fixed with 4% paraformaldehyde at room temperature for 2 hr, and nerve cell, axon and dendrite were fluorescence stained with anti-neurofilament 200 antibody (NF, Anti-Neurofilament 200, Sigma) specifically recognizing a neurofilament constituting the nerve cell and neurite. The images of the stained cells were imported into a computer from the fluorescence microscope, and the effect of Octreotide on the neurite formation and axon extension was evaluated using an image analysis soft (MacSCOP, MITANI CO.). […]

Assay [2] shares this test system. Nature of the assay: Effect of somatostatin receptor agonist on axon extension of cultured rabbit trigeminal nerve cells (neurofilament absorbance at 492 nm, fluorescence microscopy). Conditions: 48 hr culture; for absorbance indicating the neurofilament amount of the cells (492 nm): control group 0.798, n=3. The source says:
Effect of Somatostatin Receptor Agonist on Axon Extension of Cultured Rabbit Trigeminal Nerve Cell (In Vitro Test)
Japanese White Rabbits (2-3 days old) purchased from KITAYAMA LABES Co., Ltd. were used.
As a somatostatin receptor agonist, which is a test substance, t-butyl 6-amino-2-(3-(1H-indol-3-yl)-2-((4-(2-oxo-2,3-dihydrobenzoimidazol-1-yl)piperidine-1-carbonyl)amino)propionylamino)hexanoate, which is an SSTR2 specific agonist (hereinafter to be referred to as compound 1), and 1-(3-(N-(5-bromopyridin-2-yl)-N-(3,4-dichlorobenzyl)amino)propyl)-3-(3-(1H-imidazol-4-yl)propyl)thiourea (hereinafter to be referred to as compound 2), which is an SSTR4 specific agonist, were used. The compound 1 was a compound of Example 4 and synthesized according to the method of Example 2 of JP-A-2001-519812 (WO98/44922). The compound 2 was synthesized according Example 15 of JP-A-2001-525793 (WO97/43278).
Rabbit trigeminal nerve cells were isolated by reference to the report of Chan et al. (Kuan Y. Chan and Richard H. Haschke. Exp. Eye Res. 41: 687-699, 1985). To be specific, under ether anesthesia, cardiac perfusion with saline was performed and trigeminal ganglia was removed. Using nerve dispersion solution (SUMITOMO BAKELITE Co., Ltd.), trigeminal ganglia was dispersed to prepare trigeminal nerve cells. For cell culture, Neurobasal medium (GIBCO) added with B27 Supplement (GIBCO; final concentration 2% v/v) and L-Glutamine (GIBCO; final concentration 1 mM) was used under the culture conditions of 5% CO2, 95% air, 100% humidity, 37° C., 48 hr. […]
After the completion of 48 hr culture, the cells innoculated on a 96 well plate were fixed with 4% paraformaldehyde and the neurofilament of the cell was labeled with anti-neurofilament 200 antibody (Sigma) specifically recognizing a neurofilament constituting nerve cell body and neurite and HRP conjugated goat anti-mouse IgG antibody (Wako Pure Chemical Industries, Ltd.). […] After the completion of coloring, the absorbance at 492 nm was measured and the measured value was taken as the amount of the stained neurofilament and used as an index for neuritogenesis (Taniwaki T., et al. Dev. Brain Res. (1995) 88, 109-166). The cells plated on an 8 well culture slide were fixed with 4% paraformaldehyde, a sample fixed with an anti-neurofilament 200 antibody (Sigma) was stained, and fluorescence labeled with Alexa Fluor 568 conjugated secondary antibody (Molecular probes). The fluorescence labeled cells were observed under a fluorescence microscope and the cell images were imported into a computer.

The test system is the same in assay [3]. Nature of the assay: Nerve axon extension promoting action in cultured rabbit trigeminal nerve cells (phase contrast microscopy). Particulars: NGF 1 μg/mL final concentration, 48 hr culture, compared to non-addition group. As for the experimental part:
Nerve Axon Extension Promoting Action in Cultured Rabbit Trigeminal Nerve Cells (In Vitro Experiment)
as §1
As a test substance, somatostatin (manufactured by CALBIOCHEM, Lot B33795) and NGF (NGF-7S, manufactured by Sigma) were used. The test substance was dissolved in phosphate buffer (PBS) to 100 μM somatostatin, 20 μg/mL NGF-7S. The prepared reagents were preserved at −80° C. and dissolved before use.
The trigeminal nerve cell was isolated according to the report of Chan et al. (Kuan Y. Chan and Richard H. Haschke. Exp. Eye Res. 41: 687-699, 1985). To be specific, under ether anesthesia, after cardiac perfusion of rabbit with saline, the trigeminal ganglia was removed, trigeminal ganglia was dispersed using a nerve dispersion solution (SUMITOMO BAKELITE Co., Ltd.), and the cells were plated in a 24-well plate (SUMITOMO BAKELITE Co., Ltd.) coated with polylysine/laminin. The number of cells was about 3000 cells per well and the culture conditions were 5% CO2, 95% air at 37° C. […]
The effect on the formation of neurite and the axon extension from trigeminal nerve cell by somatostatin and NGF were morphologically evaluated by the observation using a phase contrast microscope.

Regarding `C[C@@H](O)[C@@H]1NC(=O)[C@H](CCCCN)NC(=O)[C@@H](Cc2c[nH]c3ccccc23)NC(=O)[C@H](Cc2ccccc2)NC(=O)[C@@H](NC(=O)[C@H](N)Cc2ccccc2)CSSC[C@@H](C(=O)N[C@H](CO)[C@@H](C)O)NC1=O` [Octreotide], in assay [1], the “neuritogenic cells compared to the control cell group (fluorescence microscopic images)” value is “neuritogenic cells increased”. Also, in assay [1] (control group about 21%, n=3, p<0.05), the “proportion (%) of neuritogenic cell to the total cell number” value was “about 43%”.
For the molecule `CC(C)(C)OC(=O)C(CCCCN)NC(=O)C(Cc1c[nH]c2ccccc12)NC(=O)N1CCC(n2c(=O)[nH]c3ccccc32)CC1` (stereo not shown) [compound 1, t-butyl 6-amino-2-(3-(1H-indol-3-yl)-2-((4-(2-oxo-2,3-dihydrobenzoimidazol-1-yl)piperidine-1-carbonyl)amino)propionylamino)hexanoate], in assay [2] (final concentration 1 μM), the “neuritogenic cells compared with the control group (fluorescence microscopic images)” value was “increase in the neuritogenic cells” and the “absorbance indicating the neurofilament amount of the cells (492 nm)” value turned out to be 0.876.
On to `S=C(NCCCc1c[nH]cn1)NCCCN(Cc1ccc(Cl)c(Cl)c1)c1ccc(Br)cn1` [compound 2, 1-(3-(N-(5-bromopyridin-2-yl)-N-(3,4-dichlorobenzyl)amino)propyl)-3-(3-(1H-imidazol-4-yl)propyl)thiourea], for which, in assay [2] (final concentration 0.1 μM), the “neuritogenic cells compared with the control group (fluorescence microscopic images)” value is listed as “increase in the neuritogenic cells” and the “absorbance indicating the neurofilament amount of the cells (492 nm)” value worked out at 0.850.

B1: NGF: nerve growth factor (NGF-7S, manufactured by Sigma) (protein, UniProt P01139 122-241, looked up)
Beta-nerve growth factor: SSTHPVFHMGEFSVCDSVSVWVGDKTTATDIKGKEVTVLAEVNINNSVFRQYFFETKCRASNPVESGCRGIDSKHWNSYCTTTHTFVKALTTDEKQAAWRFIRIDTACVCVLSRKATRRG
modifications: 7S complex
For the molecule B1, the “formation of neurite and axon extension from trigeminal nerve cell, morphological evaluation” value in assay [3] is listed as “clear nerve cell axon extension-promoting action was observed”.
